Experimental findings from patent US5635197A, “Treatment and prevention of prostatic cancer metastasis” (priority 1995, dated 1997) are described below.

The target of the assay is T1, Human Type I Steroid 5α-Reductase (Homo sapiens, UniProt P18405).
T1 construct: Preparation of Type I 5α-Reductase from Human Scalp; from tissue; host or cells: human scalp punch biopsies from hair transplant procedures; 100,000 x g pellet of skin homogenate
T1 sequence (P18405 1-259): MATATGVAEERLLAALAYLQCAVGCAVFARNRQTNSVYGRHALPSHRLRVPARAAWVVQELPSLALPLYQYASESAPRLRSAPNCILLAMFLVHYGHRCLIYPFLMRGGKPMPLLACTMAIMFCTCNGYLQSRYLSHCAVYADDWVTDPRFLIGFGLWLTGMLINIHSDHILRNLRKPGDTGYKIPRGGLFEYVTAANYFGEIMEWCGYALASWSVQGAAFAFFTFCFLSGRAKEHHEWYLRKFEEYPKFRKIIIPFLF
In words: Human Type I steroid 5α-reductase homogenate assay (conversion of [3H]-testosterone to [3H]-5α-dihydrotestosterone). It counts as biochemical. The note with it: 0.3 μM concentration; compared to control reaction mixtures; enzyme from human scalp, pH 7.5, 25°, 180 min. The source says:
Methodology of Human Type I Steroid 5α-Reductase Assays
Approximately 60-75 punches from one surgical procedure were used to generate an enzyme preparation. The subcutaneous tissue was cut away and discarded. The skin was frozen with liquid nitrogen and pulverized to powder. […] The homogenization procedure consisted of four 15 second pulses. Connective tissue was cleared from the probe with forceps between pulses. […] The pellet was resuspended by homogenization with a Dounce homogenizer using the same buffer solution. […] Aliquots of the enzyme preparation were stored at -80° until use.
The reaction was initiated by the addition of 0.5 mg of Type I 5α-reductase. The reaction mixture was incubated at 25° for 180 min, and terminated by the addition of 1 mL ice-cold stopping solution. […] The samples were prepared for high performance liquid chromatography by solid phase extraction. […] The reaction mixtures were then applied to the columns. The columns were subsequently washed with 5 mL of acetone:water (1:4), followed by 0.3 mL of methanol. The samples were then eluted with 3 mL of methanol and collected in 20 mL scintillation vials. Three mL of water was then added to each scintillation vial. […] The column temperature was maintained at 35° and the flow rate was 1.5 mL/min.
As for “(+)-(4aR)-(10bR)-4-methyl-8-benzyloxycarbonyl-10b-methyl-1,2,3,4,4a,5,6,10b-octahydrobenzo[f]quinolin-3-one [Example 144]”, the “percent inhibition of Type I 5AR” value was 90%. In the case of “(+)-(4aR)-(10bR)-4-methyl-8-(3-t-butylcarboxamidophenyl)-10b-methyl-1,2,3,4,4a,5,6,10b-octahydrobenzo[f]quinolin-3-one [Example 34]” it was 13%; in that of `CN1C(=O)CC[C@]2(C)c3ccc(-c4ccc(-c5ccc(NC(=O)C(C)(C)C)s5)cc4)cc3CC[C@@H]12` [Example 222, (+)-(4aR)-(10bR)-4-methyl-8-(4-[(2-t-butylcarbonylamino]-5-thienyl]phenyl)-10b-methyl-1,2,3,4,4a,5,6,10b-octahydrobenzo[f]quinolin-3-one], 86%; in that of “(+)-(4aR)-(10bR)-4-methyl-8-(3-[1-benzyl-4-piperidinylcarboxamido]phenyl)-10b-methyl-1,2,3,4,4a,5,6,10b-octahydrobenzo[f]quinolin-3-one [Example 209]”, 24%.
